These results are taken from patent US20200138822A1, “TOPICAL COMPOSITIONS COMPRISING PENTOXIFYLLINE AND METHODS OF TREATMENT USING THE SAME” (priority 2018, published 2020).

For series [1] the following is noted: times greater than PTX; cited from earlier work.
In series [2] the test system is oral ulcers of BD patients. Description: Randomized, open-label clinical study: daily average number of oral ulcers. Conditions: during the two-week treatment period; mean +/- SD. The series is classed as in vivo, human. The protocol:
(§1) A randomized, open-label, proof-of-concept clinical study was conducted under an FDA Investigational New Drug Application (IND). […] The CLC was administered orally as a pill and dosed as determined by the subject's physician. No less than every 48 hours, subjects' ulcers were photographed and examined using digital image processing to determine ulcer area, over a period of 14 days, which include daily collection of adverse events, ulcer number, and pain scores.
(§2) Inclusion criteria required the recent (<2 days) appearance of a new oral ulcer. Patients on immunosuppressant therapies were excluded from the study.
The total number of oral ulcers were also counted at each in-person visit, and the daily average number of oral ulcers were calculated during the treatment period.

For the next series, the system named is BD patients. Kind of series: Randomized, open-label clinical study: adverse events / safety. Conditions: 14-day study. The protocol: as §1, §2
All adverse events were reviewed in real time by the treating physician investigator.

Series [3] relates to oral ulcers of BD patients. Kind of series: Randomized, open-label clinical study: index ulcer healing (ulcer area by digital image processing). It is filed as in vivo, human. On the procedure:
as §1, §2
Patients were contacted daily for 14 consecutive days and were examined in-person no less than every 48 hours except for weekends. On the first day of entry into the study, the largest ulcer was identified and photographed as the “index ulcer”; its location was recorded and it was subsequently photographed at every in-person visit. Photographs were made with a paper ruler showing millimeter graduations lain in the same plane as the ulcer itself. Graphical processing software was used to compute the ulcer area in square millimeters; this software was calibrated from the paper ruler image and required drawing a line around the image of the ulcer margin.
Then, the proportion of patients with undetectable index ulcer (defined as those with an ulcer area of less than 1 mm^2) at day 4 was compared. Lastly, the trend in mean ulcer area over 14 days was compared as well as the results' sensitivity to outliers.

[4] abbreviates: Day 2, PTX+CLC n = 18, CLC n = 21.
[5] abbreviates: Day 4 clearance, undetectable = ulcer area less than 1 mm^2, n = 18 / n = 21.

Turning to `Cn1cnc2c1c(=O)n(CCCC(=O)O)c(=O)n2C` [Metabolite V, 1-[3-carboxypropyl]-3,7-dimethylxanthine], the “Plasma levels of metabolite relative to PTX” value in series [1] is listed as “eight”.

Take `CC(O)CCCCn1c(=O)c2c(ncn2C)n(C)c1=O` (stereo not shown) [Metabolite 1, 1-[5-hydroxyhexyl]-3,7-dimethylxanthine]: the “Plasma levels of metabolite relative to PTX” value in series [1] is “five”.

As for `COc1cc2c(c(OC)c1OC)-c1ccc(OC)c(=O)cc1[C@@H](NC(C)=O)CC2` [CLC, colchicine], in series [2], the “Daily average number of oral ulcers” value is 1.89+/−1.36. In addition, in the series with BD patients, the Serious adverse events entry is “No serious adverse events occurred”. In addition, in the series on BD patients (adverse event), the “Dysgeusia - % of patients” value is given as 0%, the “Dysgeusia - number of patients” value worked out at 0, the “Limited dermal rashes - % of patients” value is 29% and the “Limited dermal rashes - number of patients” value is 6. In addition, in the series on BD patients (adverse event), the “Nausea - % of patients” value is 10%, the “Nausea - number of patients” value is recorded as 2 and the “Vomiting - number of patients” value is “none”. Moreover, in series [3] (setting [4]), the “Patients with Index Ulcer Growth - %” value was “(80%)”, the “Patients with Index Ulcer Growth - Number” value was found to be 16, the “Patients with Index Ulcer Shrinkage - %” value is given as “(19%)” and the “Patients with Index Ulcer Shrinkage - Number” value was found to be 4. Further, in series [3] (Day 2, PTX+CLC n = 18, CLC n = 21, listed as CLC-only), the “Patients with Index Ulcer Shrinkage - %” value was found to be 19%. Moreover, in series [3] (Day 4, n = 18 / n = 21), the “Patients with Remaining Ulcers - %” value is “(71%)” and the “Patients with Remaining Ulcers - Number” value worked out at 15. In addition, in series [3] (setting [5]), the “Patients with Undetectable Ulcers - %” value is on record as “(29%)” and the “Patients with Undetectable Ulcers - Number” value is on record as 6. In addition, in series [3] (Day 4 clearance, undetectable = ulcer area less than 1 mm^2, n = 18 / n = 21, listed as CLC-only), the “Patients with Undetectable Ulcers - %” value worked out at 29%. For the same compound, in series [3] (FIG. 1, over 14 days from day zero), the “Mean index ulcer area by treatment group (trend)” value is “first growing then slowly decreasing”.
